Reference: ChEMBL document CHEMBL5523727, “Discovery of KT-413, a Targeted Protein Degrader of IRAK4 and IMiD Substrates Targeting MYD88 Mutant Diffuse Large B-Cell Lymphoma” (J Med Chem, 2024)

Tests used:
[1] = biological target: T1, Protein cereblon/Interleukin-1 receptor-associated kinase 4 (Homo sapiens, UniProt Q9NWZ3+Q96SW2); experiment: PROTAC activity at CRBN/IRAK4 in human OCI-Ly10 cells assessed as induction of IRAK4 degradation measured after 24 hrs by MSD assay; type: cell-based
Target sequence in this assay (Q9NWZ3 whole entry): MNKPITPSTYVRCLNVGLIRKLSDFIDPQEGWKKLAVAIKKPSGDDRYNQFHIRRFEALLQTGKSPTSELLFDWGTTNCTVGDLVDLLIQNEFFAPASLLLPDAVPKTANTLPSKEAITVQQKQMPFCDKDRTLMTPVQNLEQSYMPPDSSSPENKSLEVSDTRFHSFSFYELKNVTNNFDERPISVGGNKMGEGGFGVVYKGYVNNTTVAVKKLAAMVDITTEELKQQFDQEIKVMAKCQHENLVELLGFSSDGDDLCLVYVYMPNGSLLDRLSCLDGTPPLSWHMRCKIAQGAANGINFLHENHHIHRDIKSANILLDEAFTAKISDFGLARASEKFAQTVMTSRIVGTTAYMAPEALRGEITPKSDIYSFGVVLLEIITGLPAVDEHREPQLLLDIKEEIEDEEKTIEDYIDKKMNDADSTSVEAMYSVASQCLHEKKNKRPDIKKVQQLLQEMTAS
Target sequence in this assay (Q96SW2 whole entry): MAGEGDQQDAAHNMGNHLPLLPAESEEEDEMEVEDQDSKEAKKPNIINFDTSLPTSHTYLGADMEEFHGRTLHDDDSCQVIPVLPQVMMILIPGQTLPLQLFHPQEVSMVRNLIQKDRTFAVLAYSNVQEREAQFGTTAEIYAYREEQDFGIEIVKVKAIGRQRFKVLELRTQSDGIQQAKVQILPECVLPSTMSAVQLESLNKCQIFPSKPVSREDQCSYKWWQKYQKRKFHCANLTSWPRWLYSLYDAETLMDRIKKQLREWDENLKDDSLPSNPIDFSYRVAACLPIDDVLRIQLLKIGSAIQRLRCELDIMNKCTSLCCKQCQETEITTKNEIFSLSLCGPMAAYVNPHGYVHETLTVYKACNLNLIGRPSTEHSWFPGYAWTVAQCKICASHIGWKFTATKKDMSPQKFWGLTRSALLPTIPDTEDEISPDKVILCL

[2] = biological target: Protein cereblon/Interleukin-1 receptor-associated kinase 4 (Homo sapiens, UniProt Q96SW2+Q9NWZ3); experiment: Binding affinity to CRBN/IRAK4 […] assessed as dissociation constant by DiscoverX Kd Elect assay
Protein cereblon/Interleukin-1 receptor-associated kinase 4 (Homo sapiens, UniProt Q96SW2+Q9NWZ3), sequence (Q9NWZ3 whole entry): as the sequence (Q9NWZ3 whole entry) above
Protein cereblon/Interleukin-1 receptor-associated kinase 4 (Homo sapiens, UniProt Q96SW2+Q9NWZ3), sequence (Q96SW2 whole entry): as the sequence (Q96SW2 whole entry) above

Cereblon/Ikaros = Cereblon/Ikaros (Homo sapiens, UniProt Q96SW2+Q13422); experiment: PROTAC activity at CRBN/Ikaros in human OCI-Ly10 cells assessed as induction of Ikaros degradation measured after 24 hrs by MSD assay; type: cell-based
Cereblon/Ikaros, sequence (Q96SW2 whole entry): as above
Cereblon/Ikaros, sequence (Q13422 whole entry): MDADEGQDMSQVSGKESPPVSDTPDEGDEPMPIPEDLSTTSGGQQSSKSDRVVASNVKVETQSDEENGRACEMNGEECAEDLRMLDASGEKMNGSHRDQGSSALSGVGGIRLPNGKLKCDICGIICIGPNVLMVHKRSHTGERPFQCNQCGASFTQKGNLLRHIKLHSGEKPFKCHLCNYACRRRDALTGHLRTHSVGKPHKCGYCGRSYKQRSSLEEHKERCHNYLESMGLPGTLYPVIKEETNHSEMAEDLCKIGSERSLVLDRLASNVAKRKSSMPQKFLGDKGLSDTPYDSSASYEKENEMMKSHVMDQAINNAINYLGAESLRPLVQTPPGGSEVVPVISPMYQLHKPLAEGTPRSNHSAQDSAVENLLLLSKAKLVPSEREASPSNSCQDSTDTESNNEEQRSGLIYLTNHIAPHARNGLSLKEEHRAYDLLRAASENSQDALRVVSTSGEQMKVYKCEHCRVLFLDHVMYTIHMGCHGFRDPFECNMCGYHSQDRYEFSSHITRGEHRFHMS

Protein cereblon = Protein cereblon (Homo sapiens, UniProt Q96SW2); experiment: Binding affinity to CRBN (unknown origin) by HTRF assay
Protein cereblon, sequence (Q96SW2 whole entry): as the sequence (Q96SW2 whole entry) above

OCI-Ly10 = experiment: Antiproliferative activity against human OCI-Ly10 cells measured after 4 days by CellTiter-Glo Luminescent Cell Viability Assay; type: functional, cell-based; details: Homo sapiens, OCI-Ly10, 96 h
[3] = Passive permeability of the compound in wild type MDCK cells across apical to basolateral side at 1 uM measured for 120 mins by LC-MS/MS analysis; type: ADME, cell-based, Canis lupus familiaris; details: dog, read-out: permeability
[4] = Metabolic stability in human liver microsomes assessed as intrinsic clearance at 1 uM measured upto 60 mins in presence of NADPH by UPLC/MS-MS analysis; type: ADME, Microsome; details: read-out: CLH
[5] = Metabolic stability in rat liver microsomes assessed as intrinsic clearance at 1 uM measured upto 60 mins in presence of NADPH by UPLC/MS-MS analysis; type: ADME, Microsome; details: read-out: CLH
[6] = Clearance in rat at 2 mg/kg, iv by LC-MS/MS analysis; type: ADME, organism-based; details: in vivo
[7] = Volume of distribution at steady state in rat at 2 mg/kg, iv by LC-MS/MS analysis; type: ADME, organism-based; details: in vivo, read-out: Vdss
[8] = Half life in rat at 2 mg/kg, iv by LC-MS/MS analysis; type: ADME, organism-based; details: in vivo
[9] = AUC in rat at 10 mg/kg, po by LC-MS/MS analysis; type: ADME, organism-based; details: in vivo, read-out: AUC
[10] = Oral bioavailability in rat at 10 mg/kg by LC-MS/MS analysis; type: ADME, organism-based; details: in vivo
[11] = biological target: T1, Protein cereblon/Interleukin-1 receptor-associated kinase 4; experiment: PROTAC activity at CRBN/IRAK4 in human OCI-Ly10 cells assessed as induction of IRAK4 degradation measured after 24 hrs by MSD assay relative to control; type: cell-based
Target sequence in this assay (Q96SW2 whole entry, looked up): as the sequence (Q96SW2 whole entry) above
Target sequence in this assay (Q9NWZ3 whole entry, looked up): as the sequence (Q9NWZ3 whole entry) above

Compound	DC50 [1] [nM]	Kd [2] [nM]	DC50 (Cereblon/Ikaros) [nM]	IC50 (Protein cereblon) [nM]	IC50 (OCI-Ly10) [nM]	Papp A→B at 2 h, 1 µM [3] [×10⁻⁶ cm/s]	microsomal CLint at 1 µM [4] [µL/min/mg]	microsomal CLint at 1 µM [5] [µL/min/mg]	clearance [6] [mL/min/kg]	Vd [7] [L/kg]	half-life [8] [min]	AUC [9] [µM·h]	bioavailability [10] [%]	Emax [11] [%]
CN(CCCN(C)c1cccc2c1C(=O)N(C1CCC(=O)NC1=O)C2=O)C[C@H]1CC[C@H](n2cc3cc(NC(=O)c4cccc(C(F)(F)F)n4)c(C(C)(C)O)cc3n2)CC1 (stereo partly drawn)	14	0.64	282	200	308	4.2	300	250						
CN(CCCOCCCNc1cccc2c1C(=O)N(C1CCC(=O)NC1=O)C2=O)C[C@H]1CC[C@H](n2cc3cc(NC(=O)c4cccc(C(F)(F)F)n4)c(C(C)(C)O)cc3n2)CC1 (stereo partly drawn)	12	0.66	21	32	270	7.5	60	53						
CN(CCCO[C@H]1C[C@@H](Nc2cccc3c2C(=O)N(C2CCC(=O)NC2=O)C3=O)C1)C[C@H]1CC[C@H](n2cc3cc(NC(=O)c4cccc(C(F)(F)F)n4)c(C(C)(C)O)cc3n2)CC1 (stereo partly drawn)	43	0.34	10	75	166	2.8	26	16						
CN(CCCO[C@H]1C[C@H](Nc2cccc3c2C(=O)N(C2CCC(=O)NC2=O)C3=O)C1)C[C@H]1CC[C@H](n2cc3cc(NC(=O)c4cccc(C(F)(F)F)n4)c(C(C)(C)O)cc3n2)CC1 (stereo partly drawn)	4	0.63	5	21	14	4.9	68	26	36	9.5	228	0.76	15	
CC(C)(O)c1cc2nn([C@H]3CC[C@H](CN4CCC(O[C@H]5C[C@H](Nc6cccc7c6C(=O)N(C6CCC(=O)NC6=O)C7=O)C5)CC4)CC3)cc2cc1NC(=O)c1cccc(C(F)(F)F)n1 (stereo partly drawn)	5		470	26	2300	26	4.1	3.8	7	8.9	960	5.3	29	
COc1cc2nc([C@H]3CC[C@H](CN4CC5(CC(CCNc6cccc7c6C(=O)N(C6CCC(=O)NC6=O)C7=O)C5)C4)CC3)n(C)c2cc1NC(=O)c1cccc(C(F)(F)F)n1 (stereo partly drawn)	33		2		35	0.4	7	2.2	41	33	660	0.09	2.3	
CN(C[C@H]1CC[C@H](n2cc3cc(NC(=O)c4cccc(C(F)(F)F)n4)c(C(C)(C)O)cc3n2)CC1)[C@H]1CCC2(CC1)C[C@H](Nc1cccc3c1C(=O)N(C1CCC(=O)NC1=O)C3=O)C2 (stereo partly drawn)														86
COc1cc2nc([C@H]3CC[C@H](CN4CC5(CC(CCNc6cccc7c6C(=O)N(C6CCC(=O)NC6=O)C7=O)C5)C4)CC3)cn2cc1NC(=O)c1cccc(C(F)(F)F)n1 (stereo partly drawn)	38		26		154	0.64	< 1.8	< 1.8	40	43	900	0.01	< 1	
CC(C)(O)c1cc2nn([C@H]3CC[C@H](CO)CC3)cc2cc1NC(=O)c1cccc(C(F)(F)F)n1		0.37												
CC(C)(O)c1cc2c(cnn2CCCCCCCCCNc2cccc3c2C(=O)N(C2CCC(=O)NC2=O)C3=O)cc1NC(=O)c1cccc(C(F)(F)F)n1 (stereo not drawn)	> 10000	> 3000	56	880	660									30
CC(C)(O)c1cc2nn(-c3ccc(CO)cc3)cc2cc1NC(=O)c1cccc(C(F)(F)F)n1		3.5												
CN(CCCNc1cccc2c1C(=O)N(C1CCC(=O)NC1=O)C2=O)C[C@H]1CC[C@H](n2cc3cc(NC(=O)c4cccc(C(F)(F)F)n4)c(C(C)(C)O)cc3n2)CC1 (stereo partly drawn)	36	0.38	10	62	120	0.66	140	138						
